# According to US20210187085A1, “PHOSPHOLIPASE A2 RECEPTOR ANTIGENS AND THEIR MEDICAL USE” (The University of Manchester, priority 2017, published 2021):
# “Also recorded” adds a separate entry of the source. Where a SMILES comes first, the peptide text is derived from it. Bridges are numbered along the chain shown (N, C = ends). Where no end group is shown, it is not given here.
# How the values were obtained:
# anti-PLA2R Mouse 20 Ab [1] = test: Ka 1/Ms
# mouse 20 Ab = test: ELISA analysis of peptide epitope library; format: binding; conditions: 1.5 ng of peptide immobilised, absorbance 450 nm
# anti-PLA2R mouse 20 Ab [2] = test: ProteOn SPR, candidate peptide mouse 20 antibody binding kinetics; conditions: peptide immobilised on GLC chip, mouse 20 Ab 5-25 nM; for Ka: Langmuir 1:1
# [3] = tested on: human Nottingham patient autoAb; test: PEPperCHIP peptide microarray substitution scan, phase 1; format: binding; conditions: Nottingham patient autoAbs
# anti-PLA2R Mouse 20 Ab [4] = test: Kd 1/s
# anti-PLA2R mouse 20 Ab [5] = test: Slot blot analysis with mouse 20 Ab; format: binding; conditions: for interaction with mouse 20 Ab in slot blot: 205 nm NanoDrop and ponceau S staining
# Text: Incorporating the 205 nm NanoDrop and ponceau S staining the assessment of the peptide epitope library was undertaken with the mouse 20 Ab.
# human anti-PLA2R autoAbs = test: Slot blot analysis with human anti-PLA2R autoAbs; conditions: non-reducing conditions, FIG. 1 D
Kd (anti-PLA2R Mouse 20 Ab [4]),Compound,Ka (anti-PLA2R Mouse 20 Ab [1]),Kd (anti-PLA2R mouse 20 Ab [2]),Ka (anti-PLA2R mouse 20 Ab [2]),also measured
0.000134 s⁻¹,CC[C@H](C)[C@@H]1NC(=O)[C@@H](NC(=O)[C@H](CO)NC(=O)[C@H](CCC(=O)O)NC(=O)[C@H](CO)NC(=O)[C@H](CCC(N)=O)NC(=O)[C@@H](NC(=O)[C@@H](N)C(C)C)[C@@H](C)CC)CSSC[C@@H](C(=O)O)NC(=O)[C@H](CC(N)=O)NC(=O)[C@H](CCC(=O)O)NC(=O)[C@H](CC(C)C)NC(=O)[C@H]([C@@H](C)O)NC(=O)[C@H](CC(C)C)NC(=O)[C@H](C(C)C)NC(=O)[C@H](CO)NC(=O)[C@H](CCCCN)NC(=O)CNC(=O)[C@H](C)NC(=O)[C@H](CCC(N)=O)NC1=O [20mer] (H-VIQSESCIQAGKSVLTLENC-OH; disulfide 7-20),1.56e+06 M⁻¹ s⁻¹,~0.1 nM,1.56e+06 M⁻¹ s⁻¹,association with mouse 20 Ab in ELISA (mouse 20 Ab): little to no association; autoAb binding in substitution scan (in words) ([3]; listed as Peptide platform 2c): successfully interact; also recorded: successfully bound; autoAb binding in substitution scan (in words) ([3]; listed as Peptide platform 3c): successfully interact; also recorded: successfully bound; interaction with mouse 20 Ab in slot blot (anti-PLA2R mouse 20 Ab [5]; peptide epitope library): little to no association
9.4e-05 s⁻¹,Head to Tail cyclic: head to tail cyclic 28mer (SEQ ID NO: 74) (KGCFVIQSESLKKSIQAGKSVLTLENCK; head-to-tail cyclisation) [listing 1 of 2 here],1.55e+06 M⁻¹ s⁻¹,–,–,–
–,Head to Tail cyclic: head to tail cyclic 28mer (SEQ ID NO: 74) (KGCFVIQSESLKKSIQAGKSVLTLENCK; head-to-tail cyclisation) [listing 2 of 2 here],–,~0.1 nM,1.55e+06 M⁻¹ s⁻¹,"association with mouse 20 Ab in ELISA (mouse 20 Ab): displayed association; slot blot staining with human anti-PLA2R autoAbs (human anti-PLA2R autoAbs): stained positive; slot blot staining with anti-PLA2R mouse 20 Ab (anti-PLA2R mouse 20 Ab [5]; non-reducing conditions, FIG. 1 D): stained positive; slot blot intensity of interaction with mouse 20 Ab (anti-PLA2R mouse 20 Ab [5]; peptide epitope library): highest intensity; interaction with mouse 20 Ab in slot blot (anti-PLA2R mouse 20 Ab [5]; peptide epitope library, listed as head to tail 28mer): found to interact; also recorded: displayed association"
0.000143 s⁻¹,PIDSESLKK [listing 1 of 2 here],1.79e+06 M⁻¹ s⁻¹,–,–,–
–,PIDSESLKK [listing 2 of 2 here],–,~0.1 nM,1.79e+06 M⁻¹ s⁻¹,–
7.5e-05 s⁻¹,PIQSESLKK [listing 1 of 2 here],107000 M⁻¹ s⁻¹,–,–,–
–,PIQSESLKK [listing 2 of 2 here],–,~0.1 nM,107000 M⁻¹ s⁻¹,–
5.32e-05 s⁻¹,SVLTLENCK [Peptide 2],1.43e+06 M⁻¹ s⁻¹,~0.1 nM,1.43e+06 M⁻¹ s⁻¹,–
0.00014 s⁻¹,VIDSESLKK [listing 1 of 2 here],1.86e+06 M⁻¹ s⁻¹,–,–,–
–,VIDSESLKK [listing 2 of 2 here],–,~0.1 nM,1.86e+06 M⁻¹ s⁻¹,–
0.000136 s⁻¹,VIQSESLKK [listing 1 of 2 here],2.27e+06 M⁻¹ s⁻¹,–,–,–
–,VIQSESLKK [listing 2 of 2 here],–,~0.1 nM,2.27e+06 M⁻¹ s⁻¹,–
